# In ChEMBL document CHEMBL5523678, “Synthesis and clinical application of new drugs approved by FDA in 2023” (Eur J Med Chem, 2024):
# pIC50: −log10 of the molar value.
# Legend:
# [1] = Inhibition of Drosophila melanogaster GABA receptor
# [2] = Inhibition of Gamma secretase (unknown origin); design: species or system Homo sapiens
pIC50 [1],pIC50 [2],SMILES
7.62,–,Cc1cc(C2=NO[C@@](c3cc(Cl)c(Cl)c(Cl)c3)(C(F)(F)F)C2)sc1C(=O)NCC(=O)NCC(F)(F)F [LOTILANER]
–,8.21,CCC[C@H](N[C@H]1CCc2cc(F)cc(F)c2C1)C(=O)Nc1cn(C(C)(C)CNCC(C)(C)C)cn1 [NIROGACESTAT]
